The assay concerns the target Cy5-labelled Mcl1 (amino acids 171-321) C286S protein (UniProtKB Q07820) (Homo sapiens (Human), UniProt Q07820, C286S). The experiment in a line: Inhibition of Mcl-1 by the fluorescence quenching assay (Example A, Method B). Type of assay: binding. The source says: Fluorescence quenching assay measures the change fluorescence intensity of C-terminally Cy5-labelled Mcl1 (amino acids 171-321) C286S protein (UniProtKB® primary accession number Q07820) having an amino acid sequence:
which is linked at the C-terminus to the amino acid X which corresponds to a cysteine labelled on the sulfur with sulpho-Cyanine5 from Lumiprobe GmbH catalogue number 13380, upon binding of a C-terminally labelled peptide derived from PUMA (UniProtKB® primary accession number Q9BXH1) having an amino acid sequence:
which is linked at the C-terminus to the amino acid X′, where X′ is cysteine labelled on the sulfur with TQ5WS from AAT Bioquest catalogue number 2079.
The addition of a compound which binds competitively to the same site as the peptide will result in an increase in the fluorescence intensity of the protein due to displacement of the fluorescence quencher.
An 11-point serial dilution of each compound was prepared in DMSO, the final buffer conditions were 10 mM 4-(2-hydroxyethyl)-1-piperazineethanesulfonic acid [HEPES], 150 mM NaCl, 0.05% Tween 20, pH 7.4 and 5% DMSO. The final protein concentration in the assay was 1 nM with the peptide present at 10, 20 or 400 nM. The experiments were incubated for 2 hours at room temperature before fluorescence intensity was measured on a Biotek SynergyNeo plate reader (Excitation 620 nm, emission 680 nm). The dose response curves were plotted with XL-Fit software using a 4-Parameter Logistic Model (Sigmoidal DoseResponse Model) and the inhibitory concentrations that gave a 50% increase in fluorescence intensity was determined (IC50). The Ki values were determined from the IC50 values according to Cer et al, Nucleic Acids Res, 2009, 37 (WebServer issue): W441-W445. Inhibition constants (Ki) are determined from complete binding inhibition curves (cKi) or from estimated from incomplete binding inhibition curves (eKi) in most cases due to low activity.

Read-outs that look alike come from different tables or passages of the source.

The term Ki denotes the equilibrium dissociation constant of an inhibitor or competing ligand from its target.

Chain of Cy5-labelled Mcl1 (amino acids 171-321) C286S protein (Q07820 171-321 C286S): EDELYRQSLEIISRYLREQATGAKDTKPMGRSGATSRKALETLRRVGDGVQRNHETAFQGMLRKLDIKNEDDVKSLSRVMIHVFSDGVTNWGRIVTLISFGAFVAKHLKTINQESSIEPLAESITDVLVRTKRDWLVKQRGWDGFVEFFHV

`Cc1cc2c(cc1C)[C@]1(CC[C@@](Nc3cccc(Cl)c3)(C(=O)O)CC1)C(Br)=C2` [Example 140, (1s,4s)-2′-bromo-4-(3-chloroanilino)-5′,6′-dimethylspiro[cyclohexane-1,1′-indene]-4-carboxylic acid]: the Ki (Ki determined from IC50) came out at 57.4 nM. Same read-out and setting: the same measure for `Cc1cccc2c1C=C(Br)[C@]21CC[C@](Nc2cccc(Cl)c2)(C(=O)O)CC1` [Example 141, (1s,4s)-2′-bromo-4-(3-chloroanilino)-4′-methylspiro[cyclohexane-1,1′-indene]-4-carboxylic acid]: 91.6 nM; for `O=C(O)[C@]1(Nc2cccc(Cl)c2)CC[C@]2(CC1)C(CCOc1ccnc3ccsc13)=Cc1ccccc12` [Example 178, (1r,4r)-4-(3-chloroanilino)-2′-{2-[(thieno[3,2-b]pyridin-7-yl)oxy]ethyl}spiro[cyclohexane-1,1′-indene]-4-carboxylic acid]: 37.1 nM; for `O=C(O)[C@]1(Nc2cccc(Cl)c2)CC[C@]2(CC1)C(CCc1ccccn1)=Cc1ccccc12` [Example 199, (1r,4r)-4-(3-chloroanilino)-2′-[2-(pyridin-2-yl)ethyl]spiro[cyclohexane-1,1′-indene]-4-carboxylic acid]: 1250 nM. Still for that read-out and setting: the same measure for `O=C(O)[C@]1(Nc2cccc(Cl)c2)CC[C@]2(CC1)C(CCc1ccccc1)=Cc1ccccc12` [Example 200, (1r,4r)-4-(3-chloroanilino)-2′-(2-phenylethyl)spiro[cyclohexane-1,1′-indene]-4-carboxylic acid]: 139 nM. `O=C(O)[C@]1(Nc2cccc(Cl)c2)CC[C@@]2(CC1)c1ccccc1C[C@H]2CCCOc1cccc2[nH]ccc12` [Example 485, (1r,2′R,4R)-4-(3-chloroanilino)-2′-{3-[(1H-indol-4-yl)oxy]propyl}-2′,3′-dihydrospiro[cyclohexane-1,1′-indene]-4-carboxylic acid]: the Ki is 45.5 nM. For the molecule `O=C(O)[C@]1(Nc2cccc(Cl)c2)CC[C@@]2(CC1)c1ccccc1C[C@@H]2CCCOc1cccc2[nH]ccc12` [Example 486, (1r,2′S,4S)-4-(3-chloroanilino)-2′-{3-[(1H-indol-4-yl)oxy]propyl}-2′,3′-dihydrospiro[cyclohexane-1,1′-indene]-4-carboxylic acid], the Ki was found to be 82 nM. Turning to `Cc1cc(OCCC[C@@H]2Cc3ccccc3[C@]23CC[C@@](Nc2cccc(Cl)c2)(C(=O)O)CC3)c2cc[nH]c2c1` [Example 487, (1r,2′R,4R)-4-(3-chloroanilino)-2′-{3-[(6-methyl-1H-indol-4-yl)oxy]propyl}-2′,3′-dihydrospiro[cyclohexane-1,1′-indene]-4-carboxylic acid], the Ki was 72.9 nM. On to `Cc1cc(OCCC[C@H]2Cc3ccccc3[C@]23CC[C@@](Nc2cccc(Cl)c2)(C(=O)O)CC3)c2cc[nH]c2c1` [Example 488, (1r,2′S,4S)-4-(3-chloroanilino)-2′-{3-[(6-methyl-1H-indol-4-yl)oxy]propyl}-2′,3′-dihydrospiro[cyclohexane-1,1′-indene]-4-carboxylic acid], for which the Ki was 152 nM.

Turning to `Cc1ccc2[nH]ccc2c1OCCC[C@@H]1Cc2ccccc2[C@]12CC[C@@](Nc1cccc(Cl)c1)(C(=O)O)CC2` [Example 489, (1r,2′R,4R)-4-(3-chloroanilino)-2′-{3-[(5-methyl-1H-indol-4-yl)oxy]propyl}-2′,3′-dihydrospiro[cyclohexane-1,1′-indene]-4-carboxylic acid], the Ki is 76 nM. Turning to `Cc1ccc2[nH]ccc2c1OCCC[C@H]1Cc2ccccc2[C@]12CC[C@@](Nc1cccc(Cl)c1)(C(=O)O)CC2` [Example 490, (1r,2′S,4S)-4-(3-chloroanilino)-2′-{3-[(5-methyl-1H-indol-4-yl)oxy]propyl}-2′,3′-dihydrospiro[cyclohexane-1,1′-indene]-4-carboxylic acid], the Ki was determined as 61.8 nM.
